Data: patent publication US11141452B2, “Bifunctional compounds for relief of pain comprising an opioid receptor agonist moiety and a NK1 receptor antagonist moiety and methods for treating pain” (THE ARIZONA BOARD OF REGENTS ON BEHALF OF THE UNIVERSITY OF …, priority 2014, dated 2021)
“And” between values parts separate entries of the source, which are not always exact repeats. Identical values can stand only once. Like-named read-outs stand apart in the source and are kept apart here. Non-standard residues stand in square brackets, D forms with d. Residues, ends and D or L forms follow the SMILES beside them. *: point of attachment. NH(3,5-(CF3)2-benzyl) = FC(F)(F)c1cc(CN*)cc(C(F)(F)F)c1; NMeW = CN[C@@H](Cc1c[nH]c2ccccc12)C(=O)O; NMeF = CN[C@@H](Cc1ccccc1)C(=O)O

Assays:
[1] = test system: MOR; test: Guinea pig isolated ileum (GPI) functional assay; type: cell-based
[2] = target: MOR; test: Radioligand binding assay at μ opioid receptor; details: for Log[IC50±] (μ): log IC50 ± error; for Ki^μ/Ki^δ: ratio of binding affinities MOR/DOR
Method: (§1) Binding affinities of these ligands were measured on radioligand binding assays. […] ([43]).

[3] = target: T1, NK1R (Cavia porcellus, UniProt P30547); test: GPI/LMMP functional assay at NK1R (agonist and antagonist testing); type: cell-based, guinea pig; details: for GPI/LMMP (NK1R) Agonist: agonist activity at the concentration in the cell
T1 construct: The longitudinal muscle with myenteric plexus (LMMP) was carefully separated from the circular muscle; from tissue; host or cells: guinea pig ileum longitudinal muscle with myenteric plexus

[4] = target: DOR (Homo sapiens, UniProt P41143); test: Radioligand binding assay at δ opioid receptor; details: for Ki: Ki^δ (nM)
Method: as §1

[5] = target: T2, DOR (Mus musculus, UniProt P32300); test: Mouse isolated vas deferens (MVD) functional assay; type: cell-based
T2 construct: Male ICR mice under CO2 anesthesia were sacrificed by cervical dislocation and the vasa differentia removed; from tissue; host or cells: mouse vas deferens (ICR mice)

[6] = target: T3, hNK1 (Homo sapiens, UniProt P25103); test: hNK1/CHO cell membrane radioligand binding assay ([3H]SP); details: for Ki^hNK1/Ki^rNK1: ratio human/rat NK1; for Ki: Ki^hNK1 (nM), hNK1/CHO membranes, [3H]SP
T3 construct: expressed in transfected cells; host or cells: CHO

[7] = target: rNK1 (Rattus norvegicus, UniProt P14600); test: Radioligand binding assay at rat NK1 receptor; details: Ki^rNK1 (nM)
Method: as §1

[8] = agonist activity, electrically stimulated tissue, read-out: GPI (MOR) IC50
[9] = GPI/LMMP (NK1R) Ke (nM) ± S.E.M., antagonist activity
[10] = MVD (DOR) IC50 (nM), agonist activity, electrically stimulated tissue
[11] = antagonist activity, read-out: GPI/LMMP (NK1R) Ke (nM) ± S.E.M.

T1 sequence (P30547 whole entry): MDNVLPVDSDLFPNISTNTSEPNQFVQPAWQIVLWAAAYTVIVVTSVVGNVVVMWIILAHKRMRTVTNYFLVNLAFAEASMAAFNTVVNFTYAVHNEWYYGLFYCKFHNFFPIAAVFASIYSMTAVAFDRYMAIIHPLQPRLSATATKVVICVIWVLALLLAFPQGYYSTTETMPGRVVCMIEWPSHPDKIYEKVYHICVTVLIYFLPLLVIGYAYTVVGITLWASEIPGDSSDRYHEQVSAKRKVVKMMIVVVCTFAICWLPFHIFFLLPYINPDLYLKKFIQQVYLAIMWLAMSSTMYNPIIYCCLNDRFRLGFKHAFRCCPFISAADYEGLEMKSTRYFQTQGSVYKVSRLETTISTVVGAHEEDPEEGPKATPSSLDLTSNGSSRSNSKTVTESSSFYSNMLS
T3 sequence (P25103 whole entry): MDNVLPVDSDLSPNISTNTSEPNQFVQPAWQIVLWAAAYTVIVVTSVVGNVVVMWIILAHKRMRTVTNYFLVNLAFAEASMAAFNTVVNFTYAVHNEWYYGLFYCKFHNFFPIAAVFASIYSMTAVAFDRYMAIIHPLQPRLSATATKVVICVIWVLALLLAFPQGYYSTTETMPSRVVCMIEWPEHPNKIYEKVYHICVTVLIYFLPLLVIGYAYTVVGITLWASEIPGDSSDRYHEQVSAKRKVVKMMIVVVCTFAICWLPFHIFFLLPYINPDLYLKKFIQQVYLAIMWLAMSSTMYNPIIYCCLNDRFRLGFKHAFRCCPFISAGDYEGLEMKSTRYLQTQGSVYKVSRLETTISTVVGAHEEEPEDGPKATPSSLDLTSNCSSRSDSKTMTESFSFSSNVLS
T2 sequence (P32300 whole entry): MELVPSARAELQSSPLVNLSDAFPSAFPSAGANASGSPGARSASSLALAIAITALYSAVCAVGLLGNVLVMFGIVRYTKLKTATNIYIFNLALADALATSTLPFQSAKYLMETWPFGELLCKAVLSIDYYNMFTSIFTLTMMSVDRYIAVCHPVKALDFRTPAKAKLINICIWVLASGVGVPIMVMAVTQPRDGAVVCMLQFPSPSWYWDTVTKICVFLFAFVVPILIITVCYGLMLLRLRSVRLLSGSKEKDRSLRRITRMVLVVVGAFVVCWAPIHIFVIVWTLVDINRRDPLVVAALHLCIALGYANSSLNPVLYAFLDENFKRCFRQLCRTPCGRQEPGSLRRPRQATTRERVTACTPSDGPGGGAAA
rNK1, sequence (P14600 whole entry): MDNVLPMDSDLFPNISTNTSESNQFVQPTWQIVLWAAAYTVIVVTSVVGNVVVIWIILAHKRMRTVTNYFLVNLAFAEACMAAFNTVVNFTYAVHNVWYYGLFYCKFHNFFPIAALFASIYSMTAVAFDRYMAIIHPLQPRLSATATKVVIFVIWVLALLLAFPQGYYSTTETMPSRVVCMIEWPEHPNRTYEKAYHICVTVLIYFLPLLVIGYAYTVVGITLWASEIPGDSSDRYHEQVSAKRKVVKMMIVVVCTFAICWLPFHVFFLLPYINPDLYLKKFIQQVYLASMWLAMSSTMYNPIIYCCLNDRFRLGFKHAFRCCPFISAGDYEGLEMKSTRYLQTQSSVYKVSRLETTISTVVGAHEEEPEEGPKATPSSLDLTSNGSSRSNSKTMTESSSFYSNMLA
DOR (Homo sapiens, UniProt P41143), sequence (P41143 whole entry): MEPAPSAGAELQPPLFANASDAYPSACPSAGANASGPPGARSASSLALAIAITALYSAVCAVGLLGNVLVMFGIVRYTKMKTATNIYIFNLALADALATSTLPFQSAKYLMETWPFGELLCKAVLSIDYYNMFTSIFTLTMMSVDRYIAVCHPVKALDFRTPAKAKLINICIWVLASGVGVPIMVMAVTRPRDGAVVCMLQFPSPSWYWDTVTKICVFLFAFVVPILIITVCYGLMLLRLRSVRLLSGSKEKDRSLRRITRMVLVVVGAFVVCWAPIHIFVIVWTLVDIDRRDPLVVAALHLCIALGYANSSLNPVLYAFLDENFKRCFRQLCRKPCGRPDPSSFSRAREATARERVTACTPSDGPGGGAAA

Structure (SMILES)	IC50 [1, 8]	Ki [2]	Log[IC50±] (μ) [2]	IC50 [4]	IC50 [5, 10]	Ki^hNK1/Ki^rNK1 [6]	GPI/LMMP (NK1R) Agonist [3]	GPI/MVD IC50 ratio [1]	Ki [6]	higher agonist activity at DOR compared to MOR (functional assays) [5]	further results
CCCC[C@H](NC(=O)[C@H](Cc1ccccc1)N(C)C(=O)CNC(=O)[C@@H](C)NC(=O)[C@@H](N)Cc1ccc(O)cc1)C(=O)N1CCC[C@H]1C(=O)N[C@@H](CC(C)C)C(=O)N[C@@H](Cc1c[nH]c2ccccc12)C(=O)NCc1cc(C(F)(F)F)cc(C(F)(F)F)c1 [AKG112, H-Tyr-D-Ala-Gly-NMePhe-Nle-Pro-Leu-Trp-NH-Bn(3′,5′-(CF3)2)]	718 nM	13 nM	−7.51 ± 0.04	50.1 nM	11.6 ± 2.55 nM	–	–	–	–	–	Kb [3, 9]: 5.4 ± 2.1 nM
CC(C)C[C@H](NC(=O)[C@@H]1CCCN1C(=O)[C@H](Cc1ccccc1)N(C)C(=O)CNC(=O)[C@@H](C)NC(=O)[C@@H](N)Cc1ccc(O)cc1)C(=O)N[C@@H](Cc1c[nH]c2ccccc12)C(=O)NCc1cc(C(F)(F)F)cc(C(F)(F)F)c1 [AKG117, H-Tyr-D-Ala-Gly-NMePhe-Pro-Leu-Trp-NH-Bn(3′,5′-(CF3)2)]	230 nM and 232 nM	–	−7.05 ± 0.04	–	100 nM	–	–	–	–	–	–
Cc1cc(O)cc(C)c1C[C@H](N)C(=O)N[C@H](C)C(=O)NCC(=O)N[C@@H](Cc1ccc(Cl)cc1)C(=O)N1CCC[C@H]1C(=O)N[C@@H](CC(C)C)C(=O)N[C@@H](Cc1c[nH]c2ccccc12)C(=O)NCc1cc(C(F)(F)F)cc(C(F)(F)F)c1 [AKG191, H-Dmt-D-Ala-Gly-Phe(4-Cl)-Pro-Leu-Trp-NH-Bn(3′,5′-(CF3)2)]	166 ± 71.6 nM	2 nM	−8.33 ± 0.09	–	25.4 ± 7.7 nM	1/9	None at 300 nM	–	–	–	–
CC(C)C[C@H](NC(=O)[C@@H]1CCCN1C(=O)Cc1ccc(NC(=O)[C@H](Cc2ccccc2)N(C)C(=O)CNC(=O)[C@@H](C)NC(=O)[C@@H](N)Cc2ccc(O)cc2)cc1)C(=O)N[C@@H](Cc1c[nH]c2ccccc12)C(=O)NCc1cc(C(F)(F)F)cc(C(F)(F)F)c1 [AKG177, H-Tyr-D-Ala-Gly-NMePhe-4-Apac-Pro-Leu-Trp-NH-Bn(3′,5′-(CF3)2)]	41 nM and 40.8 nM	1 nM	−8.68 ± 0.19	148 nM	–	1/14	None at 100 nM	1/1	–	–	Ki^μ/Ki^δ [2]: 1/70; Kb [3]: 39.2 ± 7.9 nM; Ki [4]: 70 nM; IC50 [5]: 35 ± 7.89 nM
CC(C)C[C@H](NC(=O)[C@@H]1CCCN1C(=O)CCCNC(=O)[C@H](Cc1ccccc1)N(C)C(=O)CNC(=O)[C@@H](C)NC(=O)[C@@H](N)Cc1ccc(O)cc1)C(=O)N[C@@H](Cc1c[nH]c2ccccc12)C(=O)NCc1cc(C(F)(F)F)cc(C(F)(F)F)c1 [AKG123, H-Tyr-D-Ala-Gly-NMePhe-γ-Abu-Pro-Leu-Trp-NH-Bn(3′,5′-(CF3)2)]	424 ± 148 nM	9 nM	−7.73 ± 0.07	5.89 nM	–	–	–	–	–	–	Kb [3]: 2.3 ± 0.7 nM; Ki [4]: 3 nM; IC50 [5]: 50.1 ± 17.4 nM
CC(C)C[C@H](NC(=O)[C@@H]1CCCN1C(=O)CCCCCNC(=O)[C@H](Cc1ccccc1)N(C)C(=O)CNC(=O)[C@@H](C)NC(=O)[C@@H](N)Cc1ccc(O)cc1)C(=O)N[C@@H](Cc1c[nH]c2ccccc12)C(=O)NCc1cc(C(F)(F)F)cc(C(F)(F)F)c1 [AKG124, H-Tyr-D-Ala-Gly-NMePhe-[4]6-Ahx-Pro-Leu-Trp-NH-Bn(3′,5′-(CF3)2)]	255 ± 71.2 nM	7 nM	−7.80 ± 0.09	72.4 nM	–	1/36	None at 100 nM	7/1	–	–	Kb [3]: 11.2 ± 3.1 nM; IC50 [5]: 36.8 ± 13.6 nM
Cc1cc(O)cc(C)c1C[C@H](N)C(=O)N[C@H](C)C(=O)N(C)CC(=O)N(C)[C@@H](Cc1ccccc1)C(=O)N1CCC[C@H]1C(=O)N[C@@H](CC(C)C)C(=O)N[C@@H](Cc1c[nH]c2ccccc12)C(=O)NCc1cc(C(F)(F)F)cc(C(F)(F)F)c1 [AKG182, H-Dmt-D-Ala-NMeGly-NMePhe-Pro-Leu-Trp-NH-Bn(3′,5′-(CF3)2)]	–	–	–	–	–	1/22	–	–	–	–	Ki [7]: 110 ± 18.3 nM
CC(C)C[C@H](NC(=O)[C@@H]1CCCN1C(=O)[C@H](Cc1ccccc1)N(C)C(=O)[C@H](Cc1c[nH]c2ccccc12)NC(=O)[C@@H]1CCCN1C(=O)[C@@H](N)Cc1ccc(O)cc1)C(=O)N[C@@H](Cc1c[nH]c2ccccc12)C(=O)NCc1cc(C(F)(F)F)cc(C(F)(F)F)c1 [AKG223, H-Tyr-Pro-Trp-NMePhe-Pro-Leu-Trp-NH-Bn(3′,5′-(CF3)2)] (H-YPW[NMeF]PLW-{NH(3,5-(CF3)2-benzyl)})	–	–	–	–	–	–	–	–	3.59 ± 0.3 nM	–	Ki [7]: 10.1 ± 6.3 nM
CC(C)C[C@H](NC(=O)[C@@H]1CCCN1C(=O)[C@H](Cc1ccccc1)NC(=O)[C@H](Cc1c[nH]c2ccccc12)NC(=O)[C@@H]1CCCN1C(=O)[C@@H](N)Cc1ccc(O)cc1)C(=O)N[C@@H](Cc1c[nH]c2ccccc12)C(=O)NCc1cc(C(F)(F)F)cc(C(F)(F)F)c1 [AKG221, H-Tyr-Pro-Trp-Phe-Pro-Leu-Trp-NH-Bn(3′,5′-(CF3)2)] (H-YPWFPLW-{NH(3,5-(CF3)2-benzyl)})	–	–	–	–	–	–	–	–	3.34 ± 0.32 nM	–	Ki [7]: 38.5 ± 3.6 nM
Cc1cc(O)cc(C)c1C[C@H](N)C(=O)N[C@H](C)C(=O)NCC(=O)N[C@@H](Cc1ccccc1)C(=O)N1CCC[C@H]1C(=O)N[C@@H](CC(C)C)C(=O)N[C@@H](Cc1c[nH]c2ccccc12)C(=O)NCc1cc(C(F)(F)F)cc(C(F)(F)F)c1 [AKG116, H-Dmt-D-Ala-Gly-Phe-Pro-Leu-Trp-NH-Bn(3′,5′-(CF3)2)]	80.8 nM	3 nM	−8.63 ± 0.04	2.19 nM	3.1 nM	1/19	None at 100 nM	26/1	1.4 nM	26 times	Ki^μ/Ki^δ [2]: 3/1; Kb [3, 11]: 25 nM and 24.9 nM; Ki [4]: 1 nM
CC(C)C[C@H](NC(=O)[C@@H]1CCCN1C(=O)[C@H](Cc1ccccc1)N(C)C(=O)[C@H](Cc1c[nH]c2ccccc12)N(C)C(=O)[C@@H]1CCCN1C(=O)[C@@H](N)Cc1ccc(O)cc1)C(=O)N[C@@H](Cc1c[nH]c2ccccc12)C(=O)NCc1cc(C(F)(F)F)cc(C(F)(F)F)c1 [AKG225, H-Tyr-Pro-NMeTrp-NMePhe-Pro-Leu-Trp-NH-Bn(3′,5′-(CF3)2)] (H-YP[NMeW][NMeF]PLW-{NH(3,5-(CF3)2-benzyl)})	–	–	–	–	–	1/20	–	–	14.8 ± 1.4 nM	–	Ki [7]: 302 ± 78.5 nM
Cc1cc(O)cc(C)c1C[C@H](N)C(=O)N[C@H](C)C(=O)NCC(=O)N(C)[C@@H](Cc1ccc(F)cc1)C(=O)N1CCC[C@H]1C(=O)N[C@@H](CC(C)C)C(=O)N[C@@H](Cc1c[nH]c2ccccc12)C(=O)NCc1cc(C(F)(F)F)cc(C(F)(F)F)c1 [AKG128, H-Dmt-D-Ala-Gly-NMePhe(4-F)-Pro-Leu-Trp-NH-Bn(3′,5′-(CF3)2)]	76.5 nM	1 nM	−8.55 ± 0.18	–	11.5 ± 5.6 nM	1/13	None at 30 nM	–	–	~7 times	Ki^μ/Ki^δ [2]: 1/4; Kb [3, 9]: 11.2 ± 2.7 nM
CC(C)C[C@H](NC(=O)[C@@H]1CCCN1C(=O)[C@H](CO)NC(=O)[C@H](Cc1ccccc1)N(C)C(=O)CNC(=O)[C@@H](C)NC(=O)[C@@H](N)Cc1ccc(O)cc1)C(=O)N[C@@H](Cc1c[nH]c2ccccc12)C(=O)NCc1cc(C(F)(F)F)cc(C(F)(F)F)c1 [AKG126] (H-Y[dA]G[NMeF]SPLW-{NH(3,5-(CF3)2-benzyl)})	240 nM	2 nM	−8.30 ± 0.11	148 nM	25.9 ± 6.69 nM	1/37	None at 30 nM	9/1	1 nM	9 times	IC50 ([1]; head of Table IX, read-out: GPI (MOR) ID50): 237 ± 29.2 nM; binding selectivity for MOR over DOR [2]: 31 times; Ki^μ/Ki^δ [2]: 1/31; Kb [3, 9]: 17 nM and 16.5 nM
CC(C)C[C@H](NC(=O)[C@@H]1CCCN1C(=O)[C@H](Cc1ccc(O)cc1)NC(=O)CNC(=O)[C@H](Cc1ccccc1)NC(=O)[C@@H](C)NC(=O)[C@@H](N)Cc1ccc(O)cc1)C(=O)N[C@@H](Cc1c[nH]c2ccccc12)C(=O)NCc1cc(C(F)(F)F)cc(C(F)(F)F)c1 [AKG114] (H-Y[dA]FGYPLW-{NH(3,5-(CF3)2-benzyl)})	110 nM and 112 nM	4 nM	−8.02 ± 0.04	–	–	–	–	–	–	4 times	Kb [3, 11]: 15 nM
CC(C)C[C@H](NC(=O)[C@@H]1CCCN1C(=O)Cc1ccc(CNC(=O)[C@H](Cc2ccccc2)N(C)C(=O)CNC(=O)[C@@H](C)NC(=O)[C@@H](N)Cc2ccc(O)cc2)cc1)C(=O)N[C@@H](Cc1c[nH]c2ccccc12)C(=O)NCc1cc(C(F)(F)F)cc(C(F)(F)F)c1 [AKG178, H-Tyr-D-Ala-Gly-NMePhe-4-Ampa-Pro-Leu-Trp-NH-Bn(3′,5′-(CF3)2)]	650 nM and 654 nM	–	–	–	–	1/21	None at 300 nM	15/1	–	15 times	Kb [3, 11]: 76 nM
